SMILES strings stand for the structures. Counter-ions that a name gives are not always drawn.

Chain of TrkA (P04629 33-796): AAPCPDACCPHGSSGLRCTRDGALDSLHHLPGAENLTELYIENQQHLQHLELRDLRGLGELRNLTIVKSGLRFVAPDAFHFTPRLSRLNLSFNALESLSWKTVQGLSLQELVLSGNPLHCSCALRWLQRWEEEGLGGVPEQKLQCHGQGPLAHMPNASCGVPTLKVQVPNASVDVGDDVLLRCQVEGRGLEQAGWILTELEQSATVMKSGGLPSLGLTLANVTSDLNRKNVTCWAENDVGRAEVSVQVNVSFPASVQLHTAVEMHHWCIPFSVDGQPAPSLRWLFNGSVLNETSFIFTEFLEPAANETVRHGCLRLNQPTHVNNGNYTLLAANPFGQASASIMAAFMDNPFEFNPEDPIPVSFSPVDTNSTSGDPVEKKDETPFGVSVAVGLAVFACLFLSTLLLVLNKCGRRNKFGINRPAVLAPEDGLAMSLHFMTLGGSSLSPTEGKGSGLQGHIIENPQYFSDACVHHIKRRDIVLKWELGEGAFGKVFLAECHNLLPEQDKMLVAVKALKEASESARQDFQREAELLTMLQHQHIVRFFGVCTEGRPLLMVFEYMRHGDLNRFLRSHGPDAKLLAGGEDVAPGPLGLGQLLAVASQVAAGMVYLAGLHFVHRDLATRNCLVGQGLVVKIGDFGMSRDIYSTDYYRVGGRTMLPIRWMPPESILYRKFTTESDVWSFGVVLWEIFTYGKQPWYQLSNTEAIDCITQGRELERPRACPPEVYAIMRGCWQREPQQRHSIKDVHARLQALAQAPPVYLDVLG

For this assay, the target named is TrkA (Homo sapiens (Human), UniProt P04629). As to the kind of experiment: TrkA Omnia Assay. It counts as biochemical. Conditions: averaged IC50; 20 nM enzyme, 500 μM ATP, 10 μM peptide substrate. Put shortly:
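Continuous fluorescent kinase read-out (ex 360 nm, em 485 nm) over 70 min, with initial rates fitted to 4- or 5-parameter logistic curves for IC50. Final conditions: 500 μM ATP, 10 μM Omnia Tyr Peptide #4, 20 nM TrkA, MOPS pH 7.5 buffer with MgCl2 and Triton X-100; enzyme and compound preincubated 10 min at ambient temperature.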
A word on the IC50: it is the concentration at which inhibition is half-maximal. Low readings indicate greater potency, high ones weaker potency. The compound `COCCN1C[C@@H](NC(=O)Nc2c(C)c([C@@H]3CCCN3)nn2-c2ccccc2)[C@H](c2ccc(F)c(F)c2)C1` [Example 584, 1-((3S,4R)-4-(3,4-difluorophenyl)-1-(2-methoxyethyl)pyrrolidin-3-yl)-3-(4-methyl-1-phenyl-3-((S)-pyrrolidin-2-yl)-1H-pyrazol-5-yl)urea dihydrochloride] yielded a half-maximal inhibitory concentration (IC50) of under 100 nM. As for `COCCN1C[C@@H](NC(=O)Nc2c(Cl)c([C@H]3CCCN3)nn2-c2ccccc2)[C@H](c2ccc(F)c(F)c2)C1` [Example 585, 1-((3S,4R)-4-(3,4-difluorophenyl)-1-(2-methoxyethyl)pyrrolidin-3-yl)-3-(4-chloro-1-phenyl-3-((R)-pyrrolidin-2-yl)-1H-pyrazol-5-yl)urea dihydrochloride], the figure is under 100 nM; as for `COCCN1C[C@@H](NC(=O)Nc2c(C)c([C@@H]3CCCN3)nn2-c2ccccc2)[C@H](c2cc(F)cc(F)c2)C1` [Example 586, 1-((3S,4R)-4-(3,5-difluorophenyl)-1-(2-methoxyethyl)pyrrolidin-3-yl)-3-(4-methyl-1-phenyl-3-((S)-pyrrolidin-2-yl)-1H-pyrazol-5-yl)urea dihydrochloride], under 100 nM; as for `COCCN1C[C@@H](NC(=O)Nc2c(Cl)c([C@@H]3CCCN3)nn2-c2ccccc2)[C@H](c2ccc(F)c(F)c2)C1` [Example 587, 1-((3S,4R)-4-(3,4-difluorophenyl)-1-(2-methoxyethyl)pyrrolidin-3-yl)-3-(4-chloro-1-phenyl-3-((S)-pyrrolidin-2-yl)-1H-pyrazol-5-yl)urea dihydrochloride], under 100 nM. `COCCN1C[C@@H](NC(=O)Nc2c(Br)c([C@H]3CCCN3)nn2-c2ccccc2)[C@H](c2ccc(F)c(F)c2)C1` [Example 588, 1-(4-bromo-1-phenyl-3-((R)-pyrrolidin-2-yl)-1H-pyrazol-5-yl)-3-((3S,4R)-4-(3,4-difluorophenyl)-1-(2-methoxyethyl)pyrrolidin-3-yl)urea dihydrochloride] displayed a half-inhibitory concentration (IC50) of under 100 nM. For the compound `COCCN1C[C@@H](NC(=O)Nc2cc(COC3CCNCC3)nn2-c2ccccc2)[C@H](c2ccc(F)c(F)c2)C1` [Example 589, 1-((3S,4R)-4-(3,4-difluorophenyl)-1-(2-methoxyethyl)pyrrolidin-3-yl)-3-(1-phenyl-3-((piperidin-4-yloxy)methyl)-1H-pyrazol-5-yl)urea dihydrochloride], the IC50 was in the range of 100 to 1000 nM. Turning to `COCCN1C[C@@H](NC(=O)Nc2c(Cl)c(COC3CCNCC3)nn2-c2ccccc2)[C@H](c2ccc(F)c(F)c2)C1` [Example 590, 1-(4-chloro-1-phenyl-3-((piperidin-4-yloxy)methyl)-1H-pyrazol-5-yl)-3-((3S,4R)-4-(3,4-difluorophenyl)-1-(2-methoxyethyl)pyrrolidin-3-yl)urea dihydrochloride], the IC50 is under 100 nM.

The compound `COCCN1C[C@@H](NC(=O)Nc2c(Br)c(COC3CCNCC3)nn2-c2ccccc2)[C@H](c2ccc(F)c(F)c2)C1` [Example 591, 1-(4-bromo-1-phenyl-3-((piperidin-4-yloxy)methyl)-1H-pyrazol-5-yl)-3-((3S,4R)-4-(3,4-difluorophenyl)-1-(2-methoxyethyl)pyrrolidin-3-yl)urea dihydrochloride] had a half-maximal inhibitory concentration (IC50) of under 100 nM. As for `COCCN1C[C@@H](NC(=O)Nc2c(Br)c(C3CCN(S(C)(=O)=O)CC3)nn2-c2ccccc2)[C@H](c2ccc(F)c(F)c2)C1` [Example 592, 1-(4-bromo-3-(1-(methylsulfonyl)piperidin-4-yl)-1-phenyl-1H-pyrazol-5-yl)-3-((3S,4R)-4-(3,4-difluorophenyl)-1-(2-methoxyethyl)pyrrolidin-3-yl)urea], the figure is under 100 nM. As for `COCCN1C[C@@H](NC(=O)Nc2c(Br)c(C3CCN(C(C)=O)CC3)nn2-c2ccccc2)[C@H](c2ccc(F)c(F)c2)C1` [Example 593, 1-(3-(1-acetylpiperidin-4-yl)-4-bromo-1-phenyl-1H-pyrazol-5-yl)-3-((3S,4R)-4-(3,4-difluorophenyl)-1-(2-methoxyethyl)pyrrolidin-3-yl)urea], the figure is under 100 nM; as for `COCCN1C[C@@H](NC(=O)Nc2c(Cl)c(C3CCN(S(=O)(=O)C(F)(F)F)CC3)nn2-c2ccccc2)[C@H](c2ccc(F)c(F)c2)C1` [Example 594, 1-(4-chloro-1-phenyl-3-(1-(trifluoromethylsulfonyl)piperidin-4-yl)-1H-pyrazol-5-yl)-3-((3S,4R)-4-(3,4-difluorophenyl)-1-(2-methoxyethyl)pyrrolidin-3-yl)urea hydrochloride], under 100 nM. Compound `COCCN1C[C@@H](NC(=O)Nc2c(C)c([C@H]3CCCN3S(C)(=O)=O)nn2-c2ccccc2)[C@H](c2ccc(F)c(F)c2)C1` [Example 595, 1-((3S,4R)-4-(3,4-difluorophenyl)-1-(2-methoxyethyl)pyrrolidin-3-yl)-3-(4-methyl-3-((R)-1-(methylsulfonyl)pyrrolidin-2-yl)-1-phenyl-1H-pyrazol-5-yl)urea] displayed an IC50 of under 100 nM. With `COCCN1C[C@@H](NC(=O)Nc2c(C)c([C@H]3CCCN3C(C)=O)nn2-c2ccccc2)[C@H](c2ccc(F)c(F)c2)C1` [Example 596, 1-(3-((R)-1-acetylpyrrolidin-2-yl)-4-methyl-1-phenyl-1H-pyrazol-5-yl)-3-((3S,4R)-4-(3,4-difluorophenyl)-1-(2-methoxyethyl)pyrrolidin-3-yl)urea], the IC50 is under 100 nM.

`COCCN1C[C@@H](NC(=O)Nc2c(C)c([C@H]3CCCN3C)nn2-c2ccccc2)[C@H](c2ccc(F)c(F)c2)C1` [Example 597, 1-((3S,4R)-4-(3,4-difluorophenyl)-1-(2-methoxyethyl)pyrrolidin-3-yl)-3-(4-methyl-3-((R)-1-methylpyrrolidin-2-yl)-1-phenyl-1H-pyrazol-5-yl)urea dihydrochloride] gave a half-maximal inhibitory concentration (IC50) of under 100 nM. For `COCCN1C[C@@H](NC(=O)Nc2c(C)c([C@@H]3CCCN3C)nn2-c2ccccc2)[C@H](c2cc(F)cc(F)c2)C1` [Example 598, 1-((3S,4R)-4-(3,5-difluorophenyl)-1-(2-methoxyethyl)pyrrolidin-3-yl)-3-(4-methyl-3-((S)-1-methylpyrrolidin-2-yl)-1-phenyl-1H-pyrazol-5-yl)urea dihydrochloride] the value was under 100 nM; for `COCCN1C[C@@H](NC(=O)Nc2c(Br)c(COC3CCN(S(C)(=O)=O)CC3)nn2-c2ccccc2)[C@H](c2ccc(F)c(F)c2)C1` [Example 599, 1-(4-bromo-3-((1-(methylsulfonyl)piperidin-4-yloxy)methyl)-1-phenyl-1H-pyrazol-5-yl)-3-((3S,4R)-4-(3,4-difluorophenyl)-1-(2-methoxyethyl)pyrrolidin-3-yl)urea], under 100 nM; for `COCCN1C[C@@H](NC(=O)Nc2c(Br)c(COC3CCN(C(C)=O)CC3)nn2-c2ccccc2)[C@H](c2ccc(F)c(F)c2)C1` [Example 600, 1-(3-((1-acetylpiperidin-4-yloxy)methyl)-4-bromo-1-phenyl-1H-pyrazol-5-yl)-3-((3S,4R)-4-(3,4-difluorophenyl)-1-(2-methoxyethyl)pyrrolidin-3-yl)urea], under 100 nM.

Consider `COCCN1C[C@@H](NC(=O)Nc2c(C)c(-c3nn(C(C)C)c(=O)o3)nn2-c2ccccc2)[C@H](c2ccc(F)c(F)c2)C1` [Example 601, 1-((3S,4R)-4-(3,4-difluorophenyvl)-1-(2-methoxyethyl)pyrrolidin-3-yl)-3-(3-(4-isopropyl-5-oxo-4,5-dihydro-1,3,4-oxadiazol-2-yl)-4-methyl-1-phenyl-1H-pyrazol-5-yl)urea], for which the half-maximal inhibitory concentration (IC50) was under 100 nM. As for `COCCN1C[C@@H](NC(=O)Nc2c(C)c(-c3nn(C)c(=O)o3)nn2-c2ccccc2)[C@H](c2ccc(F)c(F)c2)C1` [Example 602, 1-((3S,4R)-4-(3,4-difluorophenyl)-1-(2-methoxyethyl)pyrrolidin-3-yl)-3-(4-methyl-3-(4-methyl-5-oxo-4,5-dihydro-1,3,4-oxadiazol-2-yl)-1-phenyl-1H-pyrazol-5-yl)urea], the figure is under 100 nM; as for `COCCN1C[C@@H](NC(=O)Nc2c(C)c(Oc3cnccn3)nn2-c2ccccc2)[C@H](c2ccc(F)cc2)C1` [Example 603, 1-((3S,4R)-4-(4-fluorophenyl)-1-(2-methoxyethyl)pyrrolidin-3-yl)-3-(4-methyl-1-phenyl-3-(pyrazin-2-yloxy)-1H-pyrazol-5-yl)urea], under 100 nM; as for `COCCN1C[C@@H](NC(=O)Nc2c(C)c(-c3ccc(=O)n(C)c3)nn2-c2ccccc2)[C@H](c2cc(F)c(F)c(F)c2)C1` [Example 604, 1-((3S,4R)-1-(2-methoxyethyl)-4-(3,4,5-trifluorophenyl)pyrrolidin-3-yl)-3-(4-methyl-3-(1-methyl-6-oxo-1,6-dihydropyridin-3-yl)-1-phenyl-1H-pyrazol-5-yl)urea], under 100 nM. On to `COCCN1C[C@@H](NC(=O)Nc2c(C(F)(F)F)c(OC)nn2-c2ccccc2)[C@H](c2ccc(F)c(F)c2)C1` [Example 605, 1-((3S,4R)-4-(3,4-difluorophenyl)-1-(2-methoxyethyl)pyrrolidin-3-yl)-3-(3-methoxy-1-phenyl-4-(trifluoromethyl)-1H-pyrazol-5-yl)urea], for which the IC50 is under 100 nM.

On to `COCCN1C[C@@H](NC(=O)Nc2c(C(F)(F)F)c(OC)nn2-c2ccccc2)[C@H](c2cc(F)cc(F)c2)C1` [Example 606, 1-((3S,4R)-4-(3,5-difluorophenyl)-1-(2-methoxyethyl)pyrrolidin-3-yl)-3-(3-methoxy-1-phenyl-4-(trifluoromethyl)-1H-pyrazol-5-yl)urea], for which the IC50 was under 100 nM. As for `COCCN1C[C@@H](NC(=O)Nc2c(C(F)(F)F)c(OC)nn2-c2ccccc2)[C@H](c2ccc(F)cc2)C1` [Example 607, 1-((3S,4R)-4-(4-fluorophenyl)-1-(2-methoxyethyl)pyrrolidin-3-yl)-3-(3-methoxy-1-phenyl-4-(trifluoromethyl)-1H-pyrazol-5-yl)urea], the figure is under 100 nM.

Source of the values: US10323022B2, “Pyrrolidinyl urea, pyrrolidinyl thiourea and pyrrolidinyl guanidine compounds as TrkA kinase inhibitors” (Array BioPharma Inc., priority 2011, dated 2019).
